Patent publication US20250042881A1, “CCR6 RECEPTOR MODULATORS” (Idorsia Pharmaceuticals Ltd, priority 2021, published 2025)

What follows are molecules tested against T1, human CCR6 (Homo sapiens, UniProt P51684) (assay: FLIPR assay: inhibition of CCL20-induced calcium signal in HEK-293 cells expressing human CCR6). Conditions: engineered HEK-293 cells expressing human CCR6; agonist CCL20 10 nM; 30 min preincubation; Fluo-8-AM; mean values if determined several times.
T1 construct: expressed in transfected cells; host or cells: HEK-293
T1 sequence (P51684 1-374): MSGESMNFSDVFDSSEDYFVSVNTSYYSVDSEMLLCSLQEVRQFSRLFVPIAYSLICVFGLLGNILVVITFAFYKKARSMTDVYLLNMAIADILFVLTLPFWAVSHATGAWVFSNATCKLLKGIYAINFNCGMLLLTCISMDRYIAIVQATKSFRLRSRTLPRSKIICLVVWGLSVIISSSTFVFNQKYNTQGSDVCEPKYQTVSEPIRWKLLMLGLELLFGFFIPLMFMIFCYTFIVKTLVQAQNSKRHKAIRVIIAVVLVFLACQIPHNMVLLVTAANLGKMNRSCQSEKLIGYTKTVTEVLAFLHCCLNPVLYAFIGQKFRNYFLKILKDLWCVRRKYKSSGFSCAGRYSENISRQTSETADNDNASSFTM
Format: cell-based
Experimental: FLIPR assay: The bioactivity of compounds is tested in a fluorometric imaging plate reader (FLIPR: Molecular Devices) using engineered HEK-293 cells expressing the human CCR6 (GenBank: AY242126). Frozen cells are plated on Poly-L-Lysine precoated 384-well plates 2 days prior to bioassay in DMEM medium supplemented with 10% FCS and 1% Penicillin-Streptomycin. At the day of bioassay, cell supernatant is discarded and cells are dye loaded for 30 minutes at room temperature in the dark with Fluo-8-AM (Focus Biomolecules) in Hanks Balanced Salt Solution (Gibco), buffered with 20 mM Hepes at pH 6.75 and supplemented with 0.05% BSA. This buffer, but lacking the dye, is also used for washing and compound dilution steps (assay buffer). Cells are washed free of excess dye with a wash-station (Biotek), leaving 40 microliter of assay buffer at the end. Cells were incubated for 15 minutes at room temperature in the dark, before adding compounds. Stock solutions of test compounds are made up at a concentration of 10 mM in DMSO, and serially diluted first in DMSO and then transferred in assay buffer to concentrations required for inhibition dose response curves. After a 45 minute incubation period in assay buffer at room temperature, 10 microliters of each compound dilution are transferred from a compound plate to the plate containing the recombinant cells in the FLIPR instrument according to the manufacturer's instructions. After cells and compounds were preincubated for 30 minutes at room temperature in the dark, 10 microliter agonist CCL20 (Peprotech) at a final concentration of 10 nM is added, again using the FLIPR instrument. Changes in fluorescence are monitored before and after addition of the test compounds and agonist. Emission peak values above base level after CCL20 addition are exported after base line subtraction. The calculated IC50 values may fluctuate depending on the daily assay performance. Fluctuations of this kind are known to those skilled in the art. In the case where IC50 values have been determined several times for the same compound, mean values are given.

Compared with CN1CC(C)([C@](O)(c2ccc(Br)cc2)c2cncc(-c3nc(C4CCOCC4)n(C4CC4)n3)c2)C1 [Example 1, (R)-(4-Bromo-phenyl)-{5-[1-cyclopropyl-5-(tetrahydro-pyran-4-yl)-1H-[1,2,4]triazol-3-yl]-pyridin-3-yl}-(1,3-dimethyl-azetidin-3-yl)-methanol], CCc1ccc([C@](O)(c2cncc(-c3nc(C4CCOCC4)n(C4CC4)n3)c2)C2(C)CN(C)C2)cc1 [Example 6, (R)-{5-[1-Cyclopropyl-5-(tetrahydro-pyran-4-yl)-1H-[1,2,4]triazol-3-yl]-pyridin-3-yl}-(1,3-dimethyl-azetidin-3-yl)-(4-ethyl-phenyl)-methanol] is 8.5-fold lower in IC50: 1050 nM for the first, 124 nM for the second.

CN1CC(C)([C@](O)(c2ccc(C(C)(C)C)cc2)c2cncc(-c3nc(C4CCOCC4)n(C4CC4)n3)c2)C1 [Example 2, (R)-(4-tert-Butyl-phenyl)-{5-[1-cyclopropyl-5-(tetrahydro-pyran-4-yl)-1H-[1,2,4]triazol-3-yl]-pyridin-3-yl}-(1,3-dimethyl-azetidin-3-yl)-methanol] and CC(C)c1ccc([C@](O)(c2cncc(-c3nc(C4CCOCC4)n(C4CC4)n3)c2)C2(C)CN(C)C2)cc1 [Example 14, (R)-{5-[1-Cyclopropyl-5-(tetrahydro-pyran-4-yl)-1H-[1,2,4]triazol-3-yl]-pyridin-3-yl}-(1,3-dimethyl-azetidin-3-yl)-(4-isopropyl-phenyl)-methanol] are within 1.5-fold of each other in IC50: 81.1 nM for the first, 118 nM for the second.

Compared with CN1CC(C)([C@](O)(c2ccc(C3(C(F)(F)F)CC3)cc2)c2cncc(-c3nc(C4CCOCC4)n(C4CC4)n3)c2)C1 [Example 3, (R)-{5-[1-Cyclopropyl-5-(tetrahydro-pyran-4-yl)-1H-[1,2,4]triazol-3-yl]-pyridin-3-yl}-(1,3-dimethyl-azetidin-3-yl)-[4-(1-trifluoromethyl-cyclopropyl)-phenyl]-methanol], CN1CC(C)([C@](O)(c2ccc(OC(F)(F)F)cc2)c2cncc(-c3nc(C4CCOCC4)n(C4CC4)n3)c2)C1 [Example 4, (R)-{5-[1-Cyclopropyl-5-(tetrahydro-pyran-4-yl)-1H-[1,2,4]triazol-3-yl]-pyridin-3-yl}-(1,3-dimethyl-azetidin-3-yl)-(4-trifluoromethoxy-phenyl)-methanol] is 2.3-fold higher in IC50: 49.8 nM for the first, 114 nM for the second. The first is the more potent here.

Going from CN1CC(C)([C@](O)(c2ccc(CC(F)(F)F)cc2)c2cncc(-c3nc(C4CCOCC4)n(C4CC4)n3)c2)C1 [Example 5, (R)-{5-[1-Cyclopropyl-5-(tetrahydro-pyran-4-yl)-1H-[1,2,4]triazol-3-yl]-pyridin-3-yl}-(1,3-dimethyl-azetidin-3-yl)-[4-(2,2,2-trifluoro-ethyl)-phenyl]-methanol] to CCCc1ccc([C@](O)(c2cncc(-c3nc(C4CCOCC4)n(C4CC4)n3)c2)C2(C)CN(C)C2)cc1 [Example 7, (R)-{5-[1-Cyclopropyl-5-(tetrahydro-pyran-4-yl)-1H-[1,2,4]triazol-3-yl]-pyridin-3-yl}-(1,3-dimethyl-azetidin-3-yl)-(4-propyl-phenyl)-methanol], the IC50 falls from 182 nM to 44.4 nM (4.1-fold).

Compared with CC(C)c1ccc([C@](O)(c2cncc(-c3nc([C@H]4CC[C@H](O)CC4)n(C4CC4)n3)c2)C2(C)CN(C)C2)cc1 [Example 8, trans-4-(2-Cyclopropyl-5-{5-[(R)-(1,3-dimethyl-azetidin-3-yl)-hydroxy-(4-isopropyl-phenyl)-methyl]-pyridin-3-yl}-2H-[1,2,4]triazol-3-yl)-cyclohexanol], CC(C)c1ccc([C@](O)(c2cncc(-c3nc(C4CCOCC4)n(C4CCCC4)n3)c2)C2(C)CN(C)C2)cc1 [Example 20, (R)-{5-[1-Cyclopentyl-5-(tetrahydro-pyran-4-yl)-1H-[1,2,4]triazol-3-yl]-pyridin-3-yl}-(1,3-dimethyl-azetidin-3-yl)-(4-isopropyl-phenyl)-methanol] is 2.6-fold lower in IC50: 98.5 nM for the first, 37.3 nM for the second.

Compared with CC(C)c1ccc([C@](O)(c2cncc(-c3nc([C@@](C)(O)C(F)(F)F)n(C4CC4)n3)c2)C2(C)CN(C)C2)cc1 [Example 9, (R)-2-(2-Cyclopropyl-5-{5-[(R)-(1,3-dimethyl-azetidin-3-yl)-hydroxy-(4-isopropyl-phenyl)-methyl]-pyridin-3-yl}-2H-[1,2,4]triazol-3-yl)-1,1,1-trifluoro-propan-2-ol], CNC(C)(C)c1nc(-c2cncc([C@@](O)(c3ccc(C(C)C)cc3)C3(C)CN(C)C3)c2)nn1C1CC1 [Example 11, (R)-{5-[1-Cyclopropyl-5-(1-methyl-1-methylamino-ethyl)-1H-[1,2,4]triazol-3-yl]-pyridin-3-yl}-(1,3-dimethyl-azetidin-3-yl)-(4-isopropyl-phenyl)-methanol] is 23-fold higher in IC50: 22.2 nM for the first, 519 nM for the second.

First: COC(=O)C12CCC(c3nc(-c4cncc([C@@](O)(c5ccc(C(C)C)cc5)C5(C)CN(C)C5)c4)nn3C3CC3)(CC1)CC2 [Example 10, 4-(2-Cyclopropyl-5-{5-[(R)-(1,3-dimethyl-azetidin-3-yl)-hydroxy-(4-isopropyl-phenyl)-methyl]-pyridin-3-yl}-2H-[1,2,4]triazol-3-yl)-bicyclo[2.2.2]octane-1-carboxylic acid methyl ester]
Second: CC(C)c1ccc([C@](O)(c2cncc(-c3nc(C45CCC(C(=O)O)(CC4)CC5)n(C4CC4)n3)c2)C2(C)CN(C)C2)cc1 [Example 13, 4-(2-Cyclopropyl-5-{5-[(R)-(1,3-dimethyl-azetidin-3-yl)-hydroxy-(4-isopropyl-phenyl)-methyl]-pyridin-3-yl}-2H-[1,2,4]triazol-3-yl)-bicyclo[2.2.2]octane-1-carboxylic acid]
The IC50 of the first is 3.4-fold lower: 43.9 nM for the first, 149 nM for the second. The first is the more potent here.

CC(C)c1ccc([C@](O)(c2cncc(-c3nc(CC4(O)CCC4)n(C4CC4)n3)c2)C2(C)CN(C)C2)cc1 [Example 12, 1-(2-Cyclopropyl-5-{5-[(R)-(1,3-dimethyl-azetidin-3-yl)-hydroxy-(4-isopropyl-phenyl)-methyl]-pyridin-3-yl}-2H-[1,2,4]triazol-3-ylmethyl)-cyclobutanol] and CCn1nc(-c2cncc([C@@](O)(c3ccc(C(C)C)cc3)C3(C)CN(C)C3)c2)nc1C1CCOCC1 [Example 18, (R)-(1,3-Dimethyl-azetidin-3-yl)-{5-[1-ethyl-5-(tetrahydro-pyran-4-yl)-1H-[1,2,4]triazol-3-yl]-pyridin-3-yl}-(4-isopropyl-phenyl)-methanol] are within 1.5-fold of each other in IC50: 114 nM for the first, 166 nM for the second.

Compared with CC(C)c1ccc([C@](O)(c2cncc(-c3nc(C4CCOCC4)n(C4CCCCC4)n3)c2)C2(C)CN(C)C2)cc1 [Example 15, (R)-{5-[1-Cyclohexyl-5-(tetrahydro-pyran-4-yl)-1H-[1,2,4]triazol-3-yl]-pyridin-3-yl}-(1,3-dimethyl-azetidin-3-yl)-(4-isopropyl-phenyl)-methanol], CC(C)c1ccc([C@](O)(c2cncc(-c3nc(C4CCOCC4)n(C)n3)c2)C2(C)CN(C)C2)cc1 [Example 16, (R)-(1,3-Dimethyl-azetidin-3-yl)-(4-isopropyl-phenyl)-{5-[1-methyl-5-(tetrahydro-pyran-4-yl)-1H-[1,2,4]triazol-3-yl]-pyridin-3-yl}-methanol] is 13-fold higher in IC50: 16.8 nM for the first, 221 nM for the second. The first is the more potent here.

Going from CC(C)c1ccc([C@](O)(c2cncc(-c3nc(C4CCOCC4)n(CCO)n3)c2)C2(C)CN(C)C2)cc1 [Example 17, 2-[3-{5-[(R)-(1,3-Dimethyl-azetidin-3-yl)-hydroxy-(4-isopropyl-phenyl)-methyl]-pyridin-3-yl}-5-(tetrahydro-pyran-4-yl)-[1,2,4]triazol-1-yl]-ethanol] to CC(C)c1ccc([C@](O)(c2cncc(-c3nc(C4CCOCC4)n(C(C)C)n3)c2)C2(C)CN(C)C2)cc1 [Example 19, (R)-(1,3-Dimethyl-azetidin-3-yl)-(4-isopropyl-phenyl)-{5-[1-isopropyl-5-(tetrahydro-pyran-4-yl)-1H-[1,2,4]triazol-3-yl]-pyridin-3-yl}-methanol], the IC50 falls from 509 nM to 94.8 nM (5.4-fold). The second is the more potent here.

Work on CC(C)c1ccc([C@](O)(c2cncc(-c3nc(C4CCOCC4)n(C(C)(C)C)n3)c2)C2(C)CN(C)C2)cc1 [Example 21, (R)-{5-[1-tert-Butyl-5-(tetrahydro-pyran-4-yl)-1H-[1,2,4]triazol-3-yl]-pyridin-3-yl}-(1,3-dimethyl-azetidin-3-yl)-(4-isopropyl-phenyl)-methanol] yielded an IC50 of 39.9 nM.
